Assay results taken from US11071727B2, “Therapeutic targeting of proteolytic cleavage of the mixed lineage leukemia gene product (MLL1) by taspase1 using kinase inhibitors” (Northwestern University, priority 2018, dated 2021).

Key:
MLL1 = assay: Western blot of full-length MLL1 protein levels in cells treated with CKII inhibitors; assay type: cell-based, human; details: 293T, MCF7 and HCT116 cells, 0-20 μM, 30 hours, Western blot with MLL1C antibody
Protocol: (§1) FIG. 5. CKII inhibitors selectively increase full-length MLL1 protein levels by decreasing the phosphorylation of MLL1 near the cleavage sites. (A) Conservation of the sequences flanking MLL1-CS2, MLL2 and TFIIA cleavage sites and phosphorylated serine and threonine residues after the cleavage sites (highlighted in red). (B) and (C) 293T cells were transfected with vector control (VT), WT, AA or DD reporter constructs of MLL1-p75 or TFIIA. Western blot was performed with anti-Flag antibody for MLL1 (p75: FL, p47: cleaved) or TFIIA (p54: FL, p47: cleaved). (D) and (E) 293T cells were transfected with WT or AA reporter constructs of MLL1-p75 or TFIIA in the presence or absence of HA-taspase1. Western blot was performed with anti-Flag antibody for MLL1 or TFIIA, or anti-HA antibody for taspase1. (F) 293T cells were infected with shRNAs against CKIIα or CKIIα′. Western blot was performed with anti-MLL1C antibody for MLL1 full-length protein levels, and CKIIα or CKIIα′ for knockdown efficiency. (G) 293T cells were treated with DMSO or 10 μM CX-4945 for 30 hours. Cells were harvested and lysed for Western blot against MLL1, MLL2 or TFIIA using β-tubulin as the loading control. (H) and (I) 293T taspase1 KO cells were pre-treated with CX-4945 (3 μM) or TTP22 (10 μM) for 30 hours. Whole cell lysates from the two conditions were incubated with increasing concentrations of his-taspase1 and subject to in vitro taspase1 assay.
FIG. 13. CKII inhibitors increase full-length MLL1 protein levels. (A) Prediction of kinases that phosphorylate MLL1 near the taspase1 cleavage site. (B) Structure of the CKII inhibitors CX-4945, TTP22, DMAT and TTB. (C) Comparison of the IC50 and molecular weight of the four CKII inhibitors. […] Quantification of the band intensities was performed by ImageJ software. (E) and (F) in vitro taspase1 cleavage assay. Taspase1 KO cell lysates were incubated with recombinant his-tagged taspase1 (0, 1, 10, 100 or 1000 ng) and subject to in vitro taspase1 cleavage assay. Cleavage efficiency was shown as the blotting for MLL1 and TFIIA using Hsp90 as the loading control.
Cell culture. […]

MLL1 chromatin occupancy = assay: ChIP-seq of MLL1 occupancy in 293T cells; assay type: cell-based, human; details: relative to DMSO control
Protocol: FIG. 6. CKII inhibition increases genome-wide MLL occupancy and excludes SEC recruitment in MLL leukemia cells. (A) and (B) MLL1C occupancy in CX-4945 or TTP22 treated cells were shown relative to DMSO control. […] (C) Track examples of the MLL1 occupancy at the promoter regions of ELF2 and C6orf211. (D) CX-4945 inhibition of leukemia cell proliferation. Multiple MLL leukemia (orange lines) and non-MLL leukemia (blue lines) were cultured with different doses of CX-4945 for 3 days. Cell number was determined by cell counter and normalized to DMSO control. (E) SEM cells were treated with 0, 5 or 10 μM of CX-4945 for 30 hours and western blot was performed to determine the MLL1 full-length protein levels and MLL-AF4 fusion protein levels. (F) MLL-AFF1, AFF4 and ELL2 occupancies were decreased by CX-4945 treatment in SEM cells.
ChIP-seq Analysis. 5×10^7 cells were used for each ChIP assay, as performed as previously described (Chen et al. 2015). Peaks were called with MACS v1.4.2 (Zhang et al. 2008) using default parameters and were annotated by the HOMER software (Heinz et al. 2010). Metaplots were generated using ngsplot (Shen et al. 2014). […] Differential occupancy of MLL1 was evaluated by edgeR, and peaks with Benjamini-Hochburg adjusted p-values less than 0.05 were considered to be differentially occupied. […]

[1] = system: MLL1 cleavage by taspase1; assay: in vitro taspase1 cleavage assay on lysates of pretreated taspase1 KO cells; assay type: biochemical, human; details: 293T taspase1 KO cells pretreated 30 hours with CX-4945 (3 μM) or TTP22 (10 μM), compared with DMSO control
Protocol: as §1, with “(H) and (I) 293T taspase1 KO cells were pre-treated with CX-4945 (3 μM) or TTP22 (10 μM) for 30 hours. Whole cell lysates from the two conditions were incubated with increasing concentrations of his-taspase1 and subject to in vitro taspase1 assay.” left out
in vitro taspase1 cleavage assay. […] Cleavage efficiency was detected by western blot against MLL1C and TFIIA using Hsp90 as the loading control.

Cc1ccc(-c2csc3ncnc(SCCC(=O)O)c23)cc1 [TTP22, 3-[[5-(4-Methylphenyl)thieno[2,3-d]pyrimidin-4-yl]thio]propanoic acid]
MLL1 full-length protein levels (MLL1): dose-dependent increase of MLL1 full-length protein levels
MLL1 occupancy (genome-wide) (MLL1 chromatin occupancy): global increase of MLL1 occupancy
cleavage efficiency by recombinant taspase1 protein [1]: cleavage efficiency was significantly diminished
